This assay has as its target Toll-like receptor 2 (Homo sapiens, UniProt O60603). The experiment in a line: LR2 Assays. On the procedure:
Next, 50 μL of an approximate 3×EC50 concentration of each agonist (Pam2CSK4 or Pam3CSK4) was added to the wells containing test compounds or the vehicle control. The plates were then incubated at 37° C./5% CO2 for 18 h. For each assay run, non-treated HEK-Blue hTLR2 cells were treated with serial dilutions of agonists to determine EC50 values for the respective run. On day 2, secreted alkaline phosphatase (SEAP) activity was detected in cell culture supernatants. In brief, 20 μL was collected from each well and transferred to a 96-well plate. Next, 200 μL of Quanti-Blue detection reagent was added to each well. […] IC50 values were calculated based on 8-point dilutions for each compound.

Sequence of Toll-like receptor 2 (O60603 whole entry): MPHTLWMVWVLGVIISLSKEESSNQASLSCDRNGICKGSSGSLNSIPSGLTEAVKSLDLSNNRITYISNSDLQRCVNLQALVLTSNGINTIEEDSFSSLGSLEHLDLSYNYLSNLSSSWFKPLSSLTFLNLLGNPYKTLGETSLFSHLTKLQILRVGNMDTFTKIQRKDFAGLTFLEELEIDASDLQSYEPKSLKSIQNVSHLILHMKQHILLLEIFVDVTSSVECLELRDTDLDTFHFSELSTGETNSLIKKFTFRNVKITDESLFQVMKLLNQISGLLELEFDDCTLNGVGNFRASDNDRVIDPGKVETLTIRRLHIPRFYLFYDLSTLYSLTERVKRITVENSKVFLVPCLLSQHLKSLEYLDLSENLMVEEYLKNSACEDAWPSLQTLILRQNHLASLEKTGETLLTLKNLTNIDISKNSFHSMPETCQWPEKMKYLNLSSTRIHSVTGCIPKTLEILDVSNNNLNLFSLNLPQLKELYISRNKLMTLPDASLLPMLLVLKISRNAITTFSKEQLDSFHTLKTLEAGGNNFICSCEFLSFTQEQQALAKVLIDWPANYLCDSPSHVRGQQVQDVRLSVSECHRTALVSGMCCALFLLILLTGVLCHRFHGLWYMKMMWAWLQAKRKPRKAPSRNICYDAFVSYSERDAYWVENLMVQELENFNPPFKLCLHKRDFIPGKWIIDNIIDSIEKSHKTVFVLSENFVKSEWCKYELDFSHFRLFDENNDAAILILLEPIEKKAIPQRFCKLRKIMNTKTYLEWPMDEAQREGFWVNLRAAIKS

For orientation: IC50 means the concentration at which inhibition is half-maximal. A lower IC50 goes with greater potency. `O=Cc1cc(NC(=O)c2csc(N3CCCCC3)n2)cc(F)c1O` [US20240043395, Compound 9] registered an IC50 of 5.2 µM.
